Assay results as given in patent publication US11306079B2, “3-(5-amino-pyrazin-2-yl)-benzenesulfonamide derivatives and related compounds as PI3K-gamma kinase inhibitors” (Incyte Corporation, priority 2017, dated 2022).
Counter-ions that a name gives are not always drawn.

Legend:
[1] = target: PI3Kγ (p110γ) Recombinant Human Protein (Homo sapiens (Human), UniProt P48736); assay: PI3K-γ Scintillation Proximity Assay; assay type: biochemical; conditions: 20 μM PIP2, 2 μM ATP, 13 nM PI3Kγ, 120 min, room temperature
From the text: Example B. PI3K-γ Scintillation Proximity Assay
(§1) [γ-^33P]ATP (10 mCi/mL) and Wheat Germ Agglutinin (WGA) YSi SPA Scintillation Beads was purchased from Perkin-Elmer (Waltham, Mass.). Lipid kinase substrate, D-myo-Phosphatidylinositol 4,5-bisphosphate (PtdIns(4,5)P2)D (+)-sn-1,2-di-O-octanoylglyceryl, 3-O-phospho linked (PIP2), CAS 204858-53-7, was purchased from Echelon Biosciences (Salt Lake City, Utah). PI3Kγ (p110γ) Recombinant Human Protein was purchased from Life technology (Grand island, NY), ATP, MgCl2, DTT, EDTA, MOPS and CHAPS were purchased from Sigma-Aldrich (St. Louis, Mo.).
(§2) The kinase reaction was conducted in polystyrene 384-well Greiner Bio-one white plate from Thermo Fisher Scientific in a final volume of 25 μL. Inhibitors were first diluted serially in DMSO and added to the plate wells before the addition of other reaction components. The final concentration of DMSO in the assay was 2%. The PI3Kγ assay was carried out at room temperature in 20 mM MOPS, pH 6.7, 10 mM MgCl2, 5 mM DTT and CHAPS 0.03%. Reactions were initiated by the addition of ATP, the final reaction mixture consisted of 20 μM PIP2, 2 μM ATP, 0.5 μCi [γ-^33P] ATP, 13 nM PI3Kγ. Reactions were incubated for 120 min and terminated by the addition of 40 μL SPA beads suspended in quench buffer: 163 mM potassium phosphate pH 7.8, 20% glycerol, 25 mM EDTA. The final concentration of SPA beads is 1.0 mg/mL. After the plate sealing, plates were shaken overnight at room temperature and centrifuged at 1500 rpm for 10 min, the radioactivity of the product was determined by scintillation counting on Topcount (Perkin-Elmer). IC50 determination was performed by fitting the curve of percent of the solvent control activity versus the log of the inhibitor concentration using the GraphPad Prism 6.0 software.

[2] = target: PI3Kδ (p110δ/p85α) Recombinant Human Protein (Homo sapiens (Human), UniProt O00329); assay: PI3Kδ Scintillation Proximity Assay; assay type: biochemical; conditions: 20 μM PIP2, 2 μM ATP, 3.4 nM PI3Kδ, 120 min, room temperature
From the text: Example C. PI3Kδ Scintillation Proximity Assay
as §1, with “PI3Kδ (p110δ/p85α)” for “PI3Kγ (p110γ)”, “Eurofins (St Charles, Mo.).” for “Life technology (Grand island, NY),”
as §2, with “PI3Kδ” for “PI3Kγ”, “3.4” for “13”, “PI3Kδ.” for “PI3Kγ.”

[3] = test system: Phosphorylated Ribosomal Protein S6 (RPS6) in THP-1 cells; assay: THP-1 RPS6 ELISA Assay; assay type: cell-based; conditions: Homo sapiens; serum starved THP-1 cells, 2 hours with compound, 10 nM MCP-1 for 15 minutes, Phospho-RPS6 ELISA; read-out: PI3Kγ_THP1_RPS6_ELISA IC50
Procedure: Example A. THP-1 RPS6 ELISA Assay
To measure the Phosphorylated Ribosomal Protein S6 (RPS6) in cell lysates, THP-1 cells (Human Acute Monocytic Leukemia) are purchased from ATCC (Manassas, Va.) and maintained in RPMI with 10% FBS (Gibco/Life Technologies, Carlsbad, Calif.). For the assay, THP-1 cells are serum starved overnight in RPMI, then plated in RPMI (2×10^5 cells/well in 90 μL) into 96-well flat-bottom tissue culture treated plates (Corning, Corning, N.Y.), in the presence or absence of a concentration range of test compounds. Covered plates are incubated for 2 hours at 37° C., 5% CO2 then treated with or without 10 nM MCP-1 (MYBioSource, San Diego, Calif.) for 15 minutes at 37° C., 5% CO2. Plates are centrifuged at 1600 RPM and supernatants are removed. Cells are lysed in Lysis Buffer (Cell Signaling, Danvers, Mass.) with Protease Inhibitor (Calbiochem/EMD, Germany), PMSF (Sigma, St Louis Mo.), HALTS (Thermo Fisher, Rockford, Ill.) for 30 min on wet ice. Cell lysates are frozen at −80° C. before testing. The lysates are tested in the Human/Mouse/Rat Phospho-RPS6 ELISA (R&D Systems, Inc. Minn, Minn.). The plate is measured using a microplate reader (SpectraMax M5—Molecular Devices, LLC Sunnyvale, Calif.) set to 450 nm with a wavelength correction of 540. IC50 determination is performed by fitting the curve of inhibitor percent inhibition versus the log of the inhibitor concentration using the GraphPad Prism 5.0 software.

PI3Kγ (p110γ) Recombinant Human Protein, sequence (P48736 whole entry): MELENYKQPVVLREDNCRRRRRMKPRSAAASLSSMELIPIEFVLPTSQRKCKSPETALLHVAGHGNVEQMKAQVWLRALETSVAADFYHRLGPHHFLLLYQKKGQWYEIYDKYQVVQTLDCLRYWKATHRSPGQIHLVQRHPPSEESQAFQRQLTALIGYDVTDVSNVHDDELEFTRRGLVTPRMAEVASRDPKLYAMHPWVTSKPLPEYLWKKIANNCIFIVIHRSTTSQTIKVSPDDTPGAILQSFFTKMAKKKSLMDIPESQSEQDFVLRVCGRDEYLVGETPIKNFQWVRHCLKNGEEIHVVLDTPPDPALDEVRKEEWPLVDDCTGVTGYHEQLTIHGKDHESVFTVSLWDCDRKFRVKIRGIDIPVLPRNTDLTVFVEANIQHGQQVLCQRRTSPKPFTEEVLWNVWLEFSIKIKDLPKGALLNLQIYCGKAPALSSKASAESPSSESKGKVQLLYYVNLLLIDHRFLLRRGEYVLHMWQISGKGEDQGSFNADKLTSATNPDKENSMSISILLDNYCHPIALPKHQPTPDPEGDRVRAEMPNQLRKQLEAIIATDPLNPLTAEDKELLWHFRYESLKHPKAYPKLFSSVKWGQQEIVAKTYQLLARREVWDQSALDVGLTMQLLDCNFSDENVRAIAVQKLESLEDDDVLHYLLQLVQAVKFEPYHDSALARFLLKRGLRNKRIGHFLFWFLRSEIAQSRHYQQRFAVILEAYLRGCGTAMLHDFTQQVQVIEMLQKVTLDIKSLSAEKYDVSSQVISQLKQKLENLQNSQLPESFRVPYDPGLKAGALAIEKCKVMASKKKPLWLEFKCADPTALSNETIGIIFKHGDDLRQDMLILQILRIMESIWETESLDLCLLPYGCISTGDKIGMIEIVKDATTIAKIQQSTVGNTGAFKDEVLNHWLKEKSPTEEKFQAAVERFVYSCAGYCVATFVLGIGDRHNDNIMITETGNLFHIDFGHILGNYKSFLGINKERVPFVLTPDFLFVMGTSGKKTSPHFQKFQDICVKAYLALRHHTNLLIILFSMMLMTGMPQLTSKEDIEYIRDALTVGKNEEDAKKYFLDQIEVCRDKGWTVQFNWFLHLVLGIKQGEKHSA
PI3Kδ (p110δ/p85α) Recombinant Human Protein, sequence (O00329 whole entry): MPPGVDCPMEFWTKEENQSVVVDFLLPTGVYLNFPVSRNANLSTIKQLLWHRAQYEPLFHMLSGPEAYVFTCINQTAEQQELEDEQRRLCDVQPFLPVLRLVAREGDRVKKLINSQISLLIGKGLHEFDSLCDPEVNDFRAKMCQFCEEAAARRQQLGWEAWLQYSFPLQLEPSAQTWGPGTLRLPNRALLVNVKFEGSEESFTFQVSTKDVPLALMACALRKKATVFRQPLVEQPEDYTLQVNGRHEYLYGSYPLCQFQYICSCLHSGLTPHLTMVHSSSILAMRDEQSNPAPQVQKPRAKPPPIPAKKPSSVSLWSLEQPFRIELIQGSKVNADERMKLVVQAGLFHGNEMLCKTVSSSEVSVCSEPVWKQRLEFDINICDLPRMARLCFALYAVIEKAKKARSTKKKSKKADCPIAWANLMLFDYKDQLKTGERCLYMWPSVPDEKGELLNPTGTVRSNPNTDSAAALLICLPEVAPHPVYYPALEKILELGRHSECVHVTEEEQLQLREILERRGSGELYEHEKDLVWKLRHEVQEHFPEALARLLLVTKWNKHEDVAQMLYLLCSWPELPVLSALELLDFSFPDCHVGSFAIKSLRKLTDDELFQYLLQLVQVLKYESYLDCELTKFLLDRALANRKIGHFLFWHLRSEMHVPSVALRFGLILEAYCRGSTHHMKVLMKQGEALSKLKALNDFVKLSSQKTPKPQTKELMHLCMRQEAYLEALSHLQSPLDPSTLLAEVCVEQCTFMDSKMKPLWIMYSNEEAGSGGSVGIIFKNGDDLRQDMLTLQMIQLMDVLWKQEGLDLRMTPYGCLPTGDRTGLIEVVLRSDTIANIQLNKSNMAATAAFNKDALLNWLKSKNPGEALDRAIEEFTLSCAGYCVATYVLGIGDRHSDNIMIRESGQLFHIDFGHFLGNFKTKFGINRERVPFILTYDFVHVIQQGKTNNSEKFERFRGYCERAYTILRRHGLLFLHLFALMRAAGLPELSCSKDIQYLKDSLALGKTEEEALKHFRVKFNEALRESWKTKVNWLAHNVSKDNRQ
PI3Kδ (p110δ/p85α) Recombinant Human Protein, sequence (P27986 whole entry partner): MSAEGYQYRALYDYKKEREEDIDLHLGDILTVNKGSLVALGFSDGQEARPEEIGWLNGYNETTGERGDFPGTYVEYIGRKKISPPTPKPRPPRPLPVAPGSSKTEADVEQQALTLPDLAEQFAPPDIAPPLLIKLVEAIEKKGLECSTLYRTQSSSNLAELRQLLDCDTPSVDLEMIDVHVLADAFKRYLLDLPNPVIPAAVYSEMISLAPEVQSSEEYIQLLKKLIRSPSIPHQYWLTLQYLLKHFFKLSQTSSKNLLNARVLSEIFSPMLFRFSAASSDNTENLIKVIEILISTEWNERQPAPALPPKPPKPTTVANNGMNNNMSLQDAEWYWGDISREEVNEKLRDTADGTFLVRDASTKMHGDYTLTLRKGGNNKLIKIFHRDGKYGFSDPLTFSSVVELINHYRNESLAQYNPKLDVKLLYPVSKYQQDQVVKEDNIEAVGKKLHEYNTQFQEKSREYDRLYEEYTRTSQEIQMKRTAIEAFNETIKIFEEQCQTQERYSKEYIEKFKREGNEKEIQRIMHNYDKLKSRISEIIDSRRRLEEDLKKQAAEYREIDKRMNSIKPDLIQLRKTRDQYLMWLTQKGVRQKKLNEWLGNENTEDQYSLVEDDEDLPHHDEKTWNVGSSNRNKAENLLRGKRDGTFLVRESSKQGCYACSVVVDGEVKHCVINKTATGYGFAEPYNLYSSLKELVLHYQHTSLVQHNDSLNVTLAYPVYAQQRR

Q: Which results are given for Cc1ccc(S(=O)(=O)NC23CC(C(=O)NCC(F)(F)F)(C2)C3)cc1-c1cnc(N)c(-n2cncn2)n1 [Example 35, 3-(3-(5-Amino-6-(1H-1,2,4-triazol-1-yl)pyrazin-2-yl)-4-methylphenylsulfonamido)-N-(2,2,2-trifluoroethyl)bicyclo[1.1.1]pentane-1-carboxamide trifluoroacetate salt]?
A: IC50 [1]: ≤ 100 nM; IC50 [2]: ≤ 500 nM; IC50 [3]: ≤ 1000 nM

Q: What does the source list for CC(=O)NC12CC(NS(=O)(=O)c3ccc(C)c(-c4cnc(N)c(-n5cncn5)n4)c3)(C1)C2 [Example 40, N-(3-(3-(5-Amino-6-(1H-1,2,4-triazol-1-yl)pyrazin-2-yl)-4-methylphenylsulfonamido)bicyclo[1.1.1]pentan-1-yl)acetamide Trifluoroacetate Salt]?
A: IC50 [1]: ≤ 100 nM; IC50 [2]: ≤ 500 nM; IC50 [3]: ≤ 1000 nM

Q: What does the source list for Cc1ccc(S(=O)(=O)NC23CCC(C#N)(C2)C3)cc1-c1cnc(N)c(-c2cn(C)nc2C)c1 [Example 82, 3-(6-Amino-5-(1,3-dimethyl-1H-pyrazol-4-yl)pyridin-3-yl)-N-(4-cyanobicyclo[2.1.1]hexan-1-yl)-4-methylbenzenesulfonamide]?
A: IC50 [1]: ≤ 100 nM; IC50 [2]: ≤ 500 nM; IC50 [3]: ≤ 1000 nM

Q: With [2H]C([2H])([2H])c1ccc(S(=O)(=O)NC23CCN(CC2)C3)cc1-c1cnc(N)c(-c2cnc(C)s2)n1 [Example 91, 3-(5-amino-6-(2-methylthiazol-5-yl)pyrazin-2-yl)-N-(1-azabicyclo[2.2.1]heptan-4-yl)-4-(methyl-d3)benzenesulfonamide] as the compound, how does the IC50 [1] read?
A: Its IC50 is ≤ 100 nM.

Q: What about the IC50 [2] of the same compound?
A: Its IC50 is ≤ 100 nM.

Q: And the IC50 [3]?
A: The IC50 was ≤ 100 nM.

Q: With [2H]C([2H])([2H])c1ccc(S(=O)(=O)NC23CCC(C#N)(C2)C3)cc1-c1cnc(N)c(-c2ccn(C)n2)n1 [Example 63, 3-(5-Amino-6-(1-methyl-1H-pyrazol-3-yl)pyrazin-2-yl)-N-(4-cyanobicyclo[2.1.1]hexan-1-yl)-4-(methyl-d3)benzenesulfonamide Trifluoroacetate Salt] as the compound, how does the IC50 [1] read?
A: Its IC50 is ≤ 100 nM.

Q: What about the IC50 [2] of the same compound?
A: Its IC50 is ≤ 100 nM.

Q: And the IC50 [3]?
A: The IC50 was ≤ 100 nM.

Q: What does the source list for Cc1ccc(S(=O)(=O)NC23CCC(O)(CC2)C3)cc1-c1cnc(N)c(-c2ccncc2)n1 [Example 17, 3-(5-Amino-6-(pyridin-4-yl)pyrazin-2-yl)-N-(4-hydroxybicyclo[2.2.1]heptan-1-yl)-4-methylbenzenesulfonamide Trifluoroacetate Salt]?
A: IC50 [1]: ≤ 100 nM; IC50 [2]: ≤ 500 nM; IC50 [3]: ≤ 500 nM

Q: How did the IC50 [1] turn out when Cc1ccc(S(=O)(=O)NC23CCC(C#N)(C2)C3)cc1-c1cnc(N)c(-n2cccn2)n1 [Example 62, 3-(5-Amino-6-(1H-pyrazol-1-yl)pyrazin-2-yl)-N-(4-cyanobicyclo[2.1.1]hexan-1-yl)-4-methylbenzenesulfonamide Trifluoroacetate Salt] was run?
A: The IC50 was ≤ 100 nM.

Q: What about the IC50 [2] of the same compound?
A: Its IC50 is ≤ 100 nM.

Q: What about the IC50 [3] of the same compound?
A: Its IC50 is ≤ 100 nM.

Q: [2H]C([2H])([2H])c1ccc(S(=O)(=O)NC23CCN(CC2)C3)cc1-c1cnc(N)c(-c2ncn(C([2H])([2H])[2H])n2)n1 [Example 92, 3-(5-amino-6-(1-(methyl-d3)-1H-1,2,4-triazol-3-yl)pyrazin-2-yl)-N-(1-azabicyclo[2.2.1]heptan-4-yl)-4-(methyl-d3)benzenesulfonamide] was tested. Which IC50 [1] did it give?
A: Its IC50 is ≤ 100 nM.

Q: What about the IC50 [2] of the same compound?
A: Its IC50 is ≤ 100 nM.

Q: What about the IC50 [3] of the same compound?
A: Its IC50 is ≤ 500 nM.

Q: With [2H]C([2H])([2H])c1ccc(S(=O)(=O)NC23CCC(C#N)(C2)C3)cc1-c1cnc(N)c(-c2cnco2)n1 [Example 69, 3-(5-Amino-6-(oxazol-5-yl)pyrazin-2-yl)-N-(4-cyanobicyclo[2.1.1]hexan-1-yl)-4-(methyl-d3)benzenesulfonamide trifluoroacetate salt] as the compound, how does the IC50 [1] read?
A: Its IC50 is ≤ 100 nM.

Q: What about the IC50 [2] of the same compound?
A: Its IC50 is ≤ 100 nM.

Q: What about the IC50 [3] of the same compound?
A: Its IC50 is ≤ 100 nM.

Q: Cc1ncc(-c2cc(-c3cc(S(=O)(=O)NC45CC(CO)(C4)C5)ccc3C)cnc2N)s1 [Example 87, 3-(6-amino-5-(2-methylthiazol-5-yl)pyridin-3-yl)-N-(3-(hydroxymethyl)bicyclo[1.1.1]pen-tan-1-yl)-4-methylbenzenesulfonamide] was tested. Which IC50 [1] did it give?
A: Its IC50 is ≤ 100 nM.

Q: What about the IC50 [2] of the same compound?
A: Its IC50 is ≤ 100 nM.

Q: And the IC50 [3]?
A: The IC50 was ≤ 100 nM.

Q: With [2H]C([2H])([2H])c1ccc(S(=O)(=O)NC23CC(C#N)(C2)C3)cc1-c1cnc(N)c(-c2ccncn2)n1 [Example 79, 3-(5-Amino-6-(pyrimidin-4-yl)pyrazin-2-yl)-N-(3-cyanobicyclo[1.1.1]pentan-1-yl)-4-(methyl-d3)benzenesulfonamide Trifluoroacetate Salt] as the compound, how does the IC50 [1] read?
A: Its IC50 is ≤ 100 nM.

Q: What about the IC50 [2] of the same compound?
A: Its IC50 is ≤ 100 nM.

Q: What about the IC50 [3] of the same compound?
A: The IC50 was ≤ 100 nM.

Q: With [2H]C([2H])([2H])c1ccc(S(=O)(=O)NC23CCC(C#N)(C2)C3)cc1-c1cnc(N)c(-c2cnc(C)s2)n1 [Example 65, 3-(5-Amino-6-(2-methylthiazol-5-yl)pyrazin-2-yl)-N-(4-cyanobicyclo[2.1.1]hexan-1-yl)-4-(methyl-d3)benzenesulfonamide trifluoroacetate salt] as the compound, how does the IC50 [1] read?
A: The IC50 was ≤ 100 nM.

Q: And the IC50 [2]?
A: The IC50 was ≤ 100 nM.

Q: And the IC50 [3]?
A: Its IC50 is ≤ 100 nM.

Q: Which IC50 [1] does the source give for O=C(O)C(F)(F)F.[2H]C([2H])([2H])c1ccc(S(=O)(=O)NC23CNC(C2)C3)cc1-c1cnc(N)c(-c2cnco2)n1 [Example 56, 3-(5-Amino-6-(oxazol-5-yl)pyrazin-2-yl)-N-(2-azabicyclo[2.1.1]hexan-4-yl)-4-(methyl-d3)benzenesulfonamide trifluoroacetate salt] here?
A: Its IC50 is ≤ 100 nM.

Q: What about the IC50 [2] of the same compound?
A: Its IC50 is ≤ 500 nM.

Q: And the IC50 [3]?
A: The IC50 was ≤ 1000 nM.

Q: Which IC50 [1] does the source give for O=C(O)C(F)(F)F.[2H]C([2H])([2H])c1ccc(S(=O)(=O)NC23CNC(C2)C3)cc1-c1cnc(N)c(-c2cnc(C)s2)n1 [Example 54, 3-(5-Amino-6-(2-methylthiazol-5-yl)pyrazin-2-yl)-N-(2-azabicyclo[2.1.1]hexan-4-yl)-4-(methyl-d3)benzenesulfonamide trifluoroacetate salt] here?
A: Its IC50 is ≤ 100 nM.

Q: And the IC50 [2]?
A: Its IC50 is ≤ 100 nM.

Q: What about the IC50 [3] of the same compound?
A: Its IC50 is ≤ 500 nM.
